This is an account of results in patent US8791144B2, “Substituted N-phenyl-1-(4-Pyridinyl)-1H-pyrazol-3-amines” (Janssen Pharmaceutica NV, priority 2009, dated 2014).

Structures are written as SMILES.

The target in data set [1] is T1, hα7-wt nAChR (Homo sapiens, UniProt P36544). The data set can be described thus: Ca2+ flux imaging (FDSS): potentiation of the choline response. Format: cell-based. As to conditions: Ca2+ assay as described in D.1; potentiation of choline response, hα7-wt nAChR; read-out: Potency (pEC50) (converted). Here is the method:
• a) Assay Buffer • Hanks buffered saline solution (HBSS, Invitrogen, Belgium), supplemented with 10 mM HEPES (Invitrogen, Belgium), CaCl2 to a final concentration of 5 mM, 0.1% Bovine serum albumin (Sigma-Aldrich NV, Belgium). • b) Calcium-Sensitive Dye—Fluo-4AM • Fluo-4AM (Molecular Probes, USA) was dissolved in DMSO containing 10% Pluronic acid (Molecular Probes, USA) to give a stock solution which was diluted in assay buffer supplemented with 5 mM probenicid (Sigma, Aldrich NV, Belgium) to give a final concentration of 2 μM. • c) 384-Well Plates • Black 384 well plate black/clear plates, PDL pre-coated (Corning, Incorporated, USA) • d) Calcium Flux Measurement • A Functional drug screening system (FDSS, Hamamatsu) was used to measure intracellular free-calcium flux signals. Method
Monolayers of hα7-wt nAChR-expressing cells were grown in multi-well plates, in particular black-sided, transparent bottomed 384 well plates coated with poly-D-lysine for 24 hours prior to loading with a fluorescent calcium indicator, in a particular embodiment loading with fluo-4AM for up to 120 minutes.
PAM activity was detected in real time by applying the compounds to be tested to the loaded cells along with a α7 nicotinic receptor agonist during constant monitoring of cellular fluorescence in a FDSS. Compounds giving peak fluorescent responses greater than the response due to agonist alone, were considered to be α7 nAChR PAM's. In a particular embodiment, the α7 nicotinic receptor agonist was choline, a more particular embodiment choline applied at a sub-maximal concentration of 100 μM. In a further setting of the present invention the compounds to be tested were applied prior to the α7 nicotinic receptor agonist, in a particular embodiment up to 10 minutes prior to the agonist.
A control response to choline was calculated on each plate from the difference in peak in fluorescence in wells receiving either choline or assay buffer alone. Compounds of the present invention were tested at a concentration range from 0.01 μM to 30 μM. Compounds were considered to have an interesting activity when they potentiated the choline signal at least with 200% when tested at a concentration of 30 μM (the efficacy of 100 μM choline was defined as 100% in the absence of a PAM). An EC50 (or pEC50) was determined as a concentration relating to half the maximal effect, when a clear sigmoidal curve with top plateau was obtained.
Background: A change in cytosolic calcium serves as a functional read-out for many receptors and channels.

Data set [2] deals with T1, hα7-wt nAChR. The data set can be described thus: Patch-clamp current recording (whole-cell voltage clamp), potentiation of choline current and PAM type. Also on record: key: Type 0 compounds minimally enhance the effect size of the current elicited by 1 mM choline.; Type 1 compounds enhance the effect size of the current elicited by 1 mM choline but minimally alter the kinetics of the receptor.; Type 2 compounds enhance the effect size of the current elicited by 1 mM choline while reducing the rate and/or the extent of desensitization.; Type 3 compounds enhance the effect size of the current elicited by 1 mM choline. When tested at higher concentrations up to 10 μM they completely inhibit desensitization, in particular a 1 mM choline application of 250 milliseconds.; Type 4 compounds allow for an initial desensitization of the receptor followed by a re-opening of the receptor during agonist application. Particulars: hα7-wt nAChR-expressing GH4C1 cells, 1 mM choline. The format is cell-based. Here is the method:
The compounds of the present invention are classified as type 0-4, based on qualitative kinetic properties, as determined by whole-cell voltage-clamp recordings. This classification is based on the effect of an α7 PAM compound, as described hereinbefore, on the signal elicited by an agonist application. In particular, said agonist is choline at a concentration of 1 mM. In a preferred experimental setting, said α7 PAM compound and choline are simultaneously applied to the cell, as described hereinafter. Desensitization is defined as the closure of the receptor upon activation during the application of the agonist in whole-cell voltage-clamp electrophysiology measurements seen as the reduction of the […] current after initial activation by the agonist.
The definition of the PAM types 0-4 is described hereinafter: • Type 0 compounds minimally enhance the effect size of the current elicited by 1 mM choline. • Type 1 compounds enhance the effect size of the current elicited by 1 mM choline but minimally alter the kinetics of the receptor. In particular, the rate and the extent of desensitization, elicited by the agonist, is not affected. The compound-modulated response to 1 mM choline, therefore, is a close to linear scaling of the 1 mM choline response in absence of the α7 PAM compound. • Type 2 compounds enhance the effect size of the current elicited by 1 mM choline while reducing the rate and/or the extent of desensitization. • Type 3 compounds enhance the effect size of the current elicited by 1 mM choline. […] At low-potency concentrations of the α7 PAM compound, the agonist-induced activation, which is followed by desensitization, can still be separated from the compound-induced re-opening as an initial inward current-maximum. At higher potency concentrations of the α7 PAM compound, the re-opening occurs faster than the closure due to desensitization so that the initial current-maximum disappears.
A compound was considered to have interesting PAM-like activity when the potentiation of the peak current was at least 200% compared to the control choline response (=100%). Such compounds are classified as belonging to a particular PAM type in the Experimental Part. Compounds not meeting the condition are not classified as belonging to a particular PAM-type.
The compounds also have a potentiating effect on the response to choline when measured by whole-cell patch clamp electrophysiology in GH4C1 cells stably over-expressing the human wild-type α7 receptor.
Patch-clamp recording from mammalian cells has provided a powerful means of assessing the function of membrane-bound proteins thought to be subunits of ligand-gated ion channels. Activation of such proteins by endogenous or exogenous ligands cause opening of a pore associated with the receptor through which ions flow down their electrochemical gradient. In the case of the hα7-wt nAChR-expressing GH4C1 recombinant cell line the preferential permeability to calcium of this receptor means that calcium flows into the cell upon activation by ACh, choline and other nicotinic ligands giving rise to a calcium current. Since this receptor rapidly desensitizes in the presence of agonist it is important an application system is used which is capable of very rapid switching of solutions (<100 ms) to prevent partial or full desensitisation of receptor responses coincident with the time of agonist application. Consequently, a second convenient technique to assess the enhancement of nicotinic efficacy is patch-clamp recording from hα7-wt nAChR-expressing GH4C1 cells coupled with a rapid-application system.
• a) Assay Buffers • The external recording solution consisted of 152 mM NaCl, 5 mM KCl, 1 mM MgCl2, 1 mM Calcium, 10 mM HEPES; pH 7.3. […]

T1 sequence (P36544 23-502): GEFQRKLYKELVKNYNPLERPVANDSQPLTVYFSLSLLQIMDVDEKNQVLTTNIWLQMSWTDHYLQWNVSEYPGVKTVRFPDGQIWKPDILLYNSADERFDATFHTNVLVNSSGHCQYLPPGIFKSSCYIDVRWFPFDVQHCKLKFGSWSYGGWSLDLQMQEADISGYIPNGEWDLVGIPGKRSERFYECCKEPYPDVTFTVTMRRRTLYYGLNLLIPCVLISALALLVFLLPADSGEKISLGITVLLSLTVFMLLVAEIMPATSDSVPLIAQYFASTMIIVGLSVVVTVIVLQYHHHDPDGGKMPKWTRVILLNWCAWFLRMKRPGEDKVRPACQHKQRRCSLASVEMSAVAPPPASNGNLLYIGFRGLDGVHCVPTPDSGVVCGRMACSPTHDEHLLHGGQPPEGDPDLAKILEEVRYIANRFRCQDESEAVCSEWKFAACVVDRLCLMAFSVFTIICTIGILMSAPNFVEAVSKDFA

`Cc1cc(-n2nc(Nc3cccc(Cl)c3F)cc2CC(=O)NC2CC2)ccn1` [Compound 76, 3-[(3-chloro-2-fluorophenyl)amino]-N-cyclopropyl-1-(2-methyl-4-pyridinyl)-1H-pyrazole-5-acetamide] came in with a melting point of 192.6 °C. Besides, the EC50 in data set [1] was 1100 nM. Further, in data set [2], the PAM type is 3.

In the case of `CNC(=O)Cc1cc(Nc2cc(Cl)cc(OC)c2)nn1-c1ccnc(C)c1` [Compound 72, 3-[(3-chloro-5-methoxyphenyl)amino]-N-methyl-1-(2-methyl-4-pyridinyl)-1H-pyrazole-5-acetamide], the melting point was determined as 215 °C. Moreover, the EC50 in data set [1] is 1820 nM. Besides, the PAM type in data set [2] came to 3.

`Cc1cc(-n2nc(Nc3ccc(F)c(F)c3)cc2CCC(=O)N(C)C)ccn1` [Compound 30, 3-[(3,4-difluorophenyl)amino]-N,N-dimethyl-1-(2-methyl-4-pyridinyl)-1H-pyrazole-5-propanamide]: in data set [1], the EC50 is 977 nM. Moreover, the PAM type in data set [2] came to 4.

The compound `CNC(=O)Cc1cc(Nc2cccc(Cl)c2F)nn1-c1ccnc(C)c1` [Compound 71, 3-[(3-chloro-2-fluorophenyl)amino]-N-methyl-1-(2-methyl-4-pyridinyl)-1H-pyrazole-5-acetamide] had a melting point of 229.7 °C. Also, the EC50 in data set [1] was 2240 nM. In data set [2], the PAM type worked out at 2.

Take `Cc1cc(-n2nc(Nc3ccc4c(c3)OC(F)(F)O4)cc2CC(=O)NC2CC2)ccn1` [Compound 100, N-cyclopropyl-3-[(2,2-difluoro-1,3-benzodioxol-5-yl)amino]-1-(2-methyl-4-pyridinyl)-1H-pyrazole-5-acetamide]: the melting point was 248.9 °C. In addition, the EC50 in data set [1] was 1260 nM. The PAM type in data set [2] worked out at 2.

`CNC(=O)Cc1cc(Nc2cccc(OC(F)(F)F)c2)nn1-c1cc(C)nc(C)c1` [Compound 112, 1-(2,6-dimethyl-4-pyridinyl)-N-methyl-3-[[3-(trifluoromethoxy)phenyl]amino]-1H-pyrazole-5-acetamide] gave a melting point of 222 °C. The EC50 in data set [1] was 1290 nM. Further, the PAM type in data set [2] came to 2.

`Cc1cc(-n2nc(Nc3cccc(OC(F)(F)F)c3)cc2CC(=O)NC2CC2)cc(C)n1` [Compound 118, N-cyclopropyl-1-(2,6-dimethyl-4-pyridinyl)-3-[[3-(trifluoromethoxy)phenyl]amino]-1H-pyrazole-5-acetamide]: the melting point was determined as 230.8 °C. The EC50 in data set [1] was 324 nM. Also, the PAM type in data set [2] stood at 2.

With `CNC(=O)Cc1cc(Nc2cccc(C(F)(F)F)c2)nn1-c1ccnc(C)c1` [Compound 42, N-methyl-1-(2-methyl-4-pyridinyl)-3-[[3-(trifluoromethyl)phenyl]amino]-1H-pyrazole-5-acetamide], the EC50 in data set [1] was 1860 nM. Further, the PAM type in data set [2] came out at 4.

`COc1cc(Cl)cc(Nc2cc(CC(=O)NC3CC3)n(-c3ccnc(C)c3)n2)c1` [Compound 77, 3-[(3-chloro-5-methoxyphenyl)amino]-N-cyclopropyl-1-(2-methyl-4-pyridinyl)-1H-pyrazole-5-acetamide]: the EC50 in data set [1] was 603 nM. Further, in data set [2], the PAM type was found to be 4.

For `Cc1cc(-n2nc(Nc3cccc(C(F)(F)F)c3)cc2CCC(=O)N(C)C)ccn1` [Compound 49, N,N-dimethyl-1-(2-methyl-4-pyridinyl)-3-[[3-(trifluoromethyl)phenyl]amino]-1H-pyrazole-5-propanamide], in data set [1], the EC50 is 295 nM. Further, the PAM type in data set [2] is reported as 4.

For `CC[C@H](O)Cc1cc(Nc2cc(F)c(F)c(F)c2)nn1-c1ccnc(C)c1` [Compound 20, (alphaS)-alpha-ethyl-1-(2-methyl-4-pyridinyl)-3-[(3,4,5-trifluorophenyl)amino]-1H-pyrazole-5-ethanol], the EC50 in data set [1] is 851 nM. Besides, in data set [2], the PAM type is 2.

For `CC[C@H](O)Cc1cc(Nc2ccc(Br)cc2C#N)nn1-c1ccnc(C)c1` [Compound 124, 5-bromo-2-[[5-[(2S)-2-hydroxybutyl]-1-(2-methyl-4-pyridinyl)-1H-pyrazol-3-yl]amino]-benzonitrile], the EC50 in data set [1] was 1660 nM. Further, the PAM type in data set [2] stood at 2.

Take `CCNC(=O)Cc1cc(Nc2cccc(Cl)c2F)nn1-c1cc(C)nc(C)c1` [Compound 75, 3-[(3-chloro-2-fluorophenyl)amino]-1-(2,6-dimethyl-4-pyridinyl)-N-ethyl-1H-pyrazole-5-acetamide]: the EC50 in data set [1] was 372 nM. Moreover, in data set [2], the PAM type turned out to be 2.

Regarding `Cc1cc(-n2nc(Nc3cccc(Cl)c3F)cc2CCC(=O)N(C)C)ccn1` [Compound 84, 3-[(3-chloro-2-fluorophenyl)amino]-N,N-dimethyl-1-(2-methyl-4-pyridinyl)-1H-pyrazole-5-propanamide], in data set [1], the EC50 is 661 nM. In data set [2], the PAM type is 4.

With `COc1cc(Cl)cc(Nc2cc(CCC(=O)N(C)C)n(-c3ccnc(C)c3)n2)c1` [Compound 85, 3-[(3-chloro-5-methoxyphenyl)amino]-N,N-dimethyl-1-(2-methyl-4-pyridinyl)-1H-pyrazole-5-propanamide], the EC50 in data set [1] was 295 nM. Moreover, the PAM type in data set [2] was 4.

Turning to `CC[C@@H](O)Cc1cc(Nc2cc(OC)cc(C(F)(F)F)c2)nn1-c1ccnc(C)c1` [Compound 36, (alphaR)-alpha-ethyl-3-[[3-methoxy-5-(trifluoromethyl)phenyl]amino]-1-(2-methyl-4-pyridinyl)-1H-pyrazole-5-ethanol], the EC50 in data set [1] was 162 nM. For the same compound, in data set [2], the PAM type is reported as 2.

The term melting point denotes the temperature, or range, at which the solid turns liquid.
